Results taken from US10711041B2, “Lyophilisate containing a cyclic peptide of formula X1-[sequence]-X2” (priority 2013, dated 2020).

Experiments:
Assay type in all cases: physicochemical
[1] = Stability of the aqueous solution before inhalation (visual inspection, reverse HPLC)
Procedure: For that reason the stability of an aqueous solution was investigated exemplarily. The ready to use-solution therefore was stored either in a syringe commonly used in laboratory, at 2 to 8° C. for 7 days, or in a container of a nebulizer at 25° C. for 24 hours. […] The methods used therefore were analytical methods commonly used in laboratory, as for example the visual inspection, as well as analysis by means of reverse HPLC.

[2] = Aerosol droplet size characterisation (laser diffraction / impactor)
Excerpt: By means of a nebulizer which converts aqueous solution into an aerosol, also the aqueous solutions of the cyclic peptides of amino acid sequence SEQ ID NO:1 to SEQ ID NO:6 may be converted into aerosols. Such aerosols can be characterized with respect to the medium droplet size, as well as to size distribution of the aerosol droplets. For that conventional methods are used, which are described also in pharmacopoeias. The one analytical method uses the cascade impactor in its actual construction, the “Next Generation Impactor”. Thereby the aerosol is conducted through a series of sieve plates, whereby the diameter of the holes is diminished with each plate and the amount of the holes is increased. In the other analytical method, the laser-diffraction measurement, the droplet sizes are determined by means of laser. The 2 important parameters which are determined during these measurements, one the one hand is the median of the diameter of all droplets, and on the other hand, the amount of droplets having a diameter of ≤5 μm. In the literature that diameter is described as a limit, under which inhaled aerosol particles arrive in fact in the lung.
(§1) It is ramblingly known, that in practice from a generated aerosol only a part is available for the patient. Thus, for determining the amount of aerosol which is available for a user, trials with a breathing simulator were carried out. For investigating the particle size and for the implementation of the breathing simulation an aerosol from an aqueous solution of the cyclic peptide of amino acid sequence SEQ ID NO:1 was used. For generating aerosol different nebulizer types were used. The nebulizers A and B were so called “Mesh-Type nebulizers”.

[3] = Breathing simulator, amount of aerosol available for inhalation; details: nebulizers Type A and Type B
Procedure: as §1

[4] = laboratory syringe, 2 to 8° C., T = 0 to 7 days
[5] = storage container of a nebulizer, 25° C., T = 0 to 24 hours

Q: With `C[C@@H]1NC(=O)CNC(=O)[C@H](CCC(=O)O)NC(=O)[C@@H]2CCCN2C(=O)[C@H]([C@@H](C)O)NC(=O)[C@H](CCC(=O)O)NC(=O)[C@H](CCCNC(=N)N)NC(=O)[C@H](CCC(N)=O)NC(=O)CNC(=O)[C@@H](N)CSSC[C@@H](C(=O)O)NC(=O)[C@H](Cc2ccc(O)cc2)NC(=O)[C@H](Cc2c[nH]c3ccccc23)NC(=O)[C@@H]2CCCN2C(=O)[C@H](CCCCN)NC(=O)[C@H](C)NC(=O)[C@H](CCC(=O)O)NC1=O` [SEQ ID NO: 1] as the molecule, how does the “Purity of aqueous solution (stability study)” value (“Purity of aqueous solution” for short) ([1]; laboratory syringe, 2 to 8° C., T = 0) read?
A: The value was 96.3%.

Q: And the “Amount/contents of aqueous solution” value [1, 4]?
A: The value was 25 mg/mL.

Q: What about the “Appearance of aqueous solution” value [1, 4] of the same molecule?
A: Its value is “clear solution”.

Q: What about the “Purity of aqueous solution” value ([1]; laboratory syringe, 2 to 8° C., T = 7 days) of the same molecule?
A: Its value is 96.2%.

Q: And the “Purity of aqueous solution” value ([1]; storage container of a nebulizer, 25° C., T = 0)?
A: The value was 96.6%.

Q: And the “Amount/contents of aqueous solution” value [1, 5]?
A: Its value is 25 mg/mL.

Q: What about the “Appearance of aqueous solution” value [1, 5] of the same molecule?
A: Its value is “clear solution”.

Q: What about the “Purity of aqueous solution” value ([1]; storage container of a nebulizer, 25° C., T = 24 hours) of the same molecule?
A: Its value is 96.5%.

Q: And the “amount of droplets with a diameter of ≤5 μm in the aerosol” value ([2]; all nebulizers)?
A: Its value is “at least 50%”.

Q: What about the “Amount of particles with Ø ≤5 μm” value ([2]; nebulizer Type A) of the same molecule?
A: The value was 50%.

Q: What about the “Median particle diameter of aerosol” value ([2]; nebulizer Type A) of the same molecule?
A: The value was 4.7 μm.

Q: What about the “Amount of particles with Ø ≤5 μm” value ([2]; nebulizer Type B) of the same molecule?
A: The value was 70%.

Q: What about the “Median particle diameter of aerosol” value ([2]; nebulizer Type B) of the same molecule?
A: The value was 3.3 μm.

Q: What about the “Amount of particles with Ø ≤5 μm” value ([2]; nebulizer Type C) of the same molecule?
A: The value was 65%.

Q: And the “Median particle diameter of aerosol” value ([2]; nebulizer Type C)?
A: The value was 3.7 μm.

Q: And the “part of the aerosol available for inhalation (inhalation filter)” value [3]?
A: Its value is “predominant part”.
